Assay [1] addresses T1, FAAH (Mus musculus, UniProt O08914).
T1 sequence (O08914 1-579): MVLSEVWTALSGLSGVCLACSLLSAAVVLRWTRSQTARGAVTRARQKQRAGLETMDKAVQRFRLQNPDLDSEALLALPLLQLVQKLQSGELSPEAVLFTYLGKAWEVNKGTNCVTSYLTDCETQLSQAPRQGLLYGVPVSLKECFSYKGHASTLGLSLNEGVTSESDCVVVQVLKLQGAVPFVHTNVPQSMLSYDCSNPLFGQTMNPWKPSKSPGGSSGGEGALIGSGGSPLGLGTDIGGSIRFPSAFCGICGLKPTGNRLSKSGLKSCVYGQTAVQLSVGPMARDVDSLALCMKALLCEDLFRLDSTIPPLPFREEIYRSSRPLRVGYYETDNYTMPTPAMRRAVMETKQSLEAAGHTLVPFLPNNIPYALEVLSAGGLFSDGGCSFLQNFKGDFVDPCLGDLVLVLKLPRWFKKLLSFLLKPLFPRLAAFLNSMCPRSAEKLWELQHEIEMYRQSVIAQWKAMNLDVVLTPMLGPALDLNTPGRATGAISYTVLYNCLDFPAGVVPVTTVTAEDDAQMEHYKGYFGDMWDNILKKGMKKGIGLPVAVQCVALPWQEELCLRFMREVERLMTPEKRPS
The assay can be described thus: In vitro competitive activity-based protein profiling (Table 2, % inhibition at 1 μM). Type of assay: biochemical. To be noted: read-out: % Inhibition at 1 μM FAAH.

Assay [2] addresses T2, ABHD6 (Mus musculus, UniProt Q8R2Y0).
T2 sequence (Q8R2Y0 1-336): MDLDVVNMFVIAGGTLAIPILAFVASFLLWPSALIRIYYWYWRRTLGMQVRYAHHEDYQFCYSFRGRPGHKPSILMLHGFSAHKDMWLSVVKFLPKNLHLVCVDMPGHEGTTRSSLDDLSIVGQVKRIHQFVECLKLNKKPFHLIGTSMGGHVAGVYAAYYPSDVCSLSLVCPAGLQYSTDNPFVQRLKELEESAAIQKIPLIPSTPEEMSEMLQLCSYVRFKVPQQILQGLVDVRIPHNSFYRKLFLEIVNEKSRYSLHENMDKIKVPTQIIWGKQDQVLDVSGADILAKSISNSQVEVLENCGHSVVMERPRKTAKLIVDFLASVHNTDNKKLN
The assay is described as above. Type of assay: biochemical. The settings on record: read-out: % Inhibition at 1 μM ABHD6.

The target of assay [3] is T3, MAGL (Mus musculus, UniProt O35678).
T3 sequence (O35678 1-303): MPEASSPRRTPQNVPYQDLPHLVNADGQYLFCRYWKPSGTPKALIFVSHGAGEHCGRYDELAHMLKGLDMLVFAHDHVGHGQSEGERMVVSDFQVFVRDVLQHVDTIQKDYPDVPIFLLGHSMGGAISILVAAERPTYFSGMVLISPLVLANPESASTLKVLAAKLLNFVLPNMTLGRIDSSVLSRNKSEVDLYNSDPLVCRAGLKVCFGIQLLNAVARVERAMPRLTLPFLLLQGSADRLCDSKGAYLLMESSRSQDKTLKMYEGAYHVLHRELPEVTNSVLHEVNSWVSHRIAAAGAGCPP
The experiment in a line: biochemical. The settings on record: mouse; in vitro competitive ABPP; read-out: Mouse (IC50 value, nM) MAGL.

The target of assay [4] is T3, MAGL. The experiment in a line: In vitro competitive activity-based protein profiling (Table 2, % inhibition at 1 μM). Type of assay: biochemical. To be noted: read-out: % Inhibition at 1 μM MAGL. On the procedure: After 30 min, FP—Rh (1.0 μL, 50 μM in DMSO) was added and the mixture was incubated for another 30 min at 37° C. Reactions were quenched with SDS loading buffer (50 μL-4×) and run on SDS-PAGE.
Cell lysates were diluted with mock proteomes for use in competitive ABPP experiments.

The target of assay [5] is T1, FAAH. The experiment in a line: biochemical. To be noted: in vitro competitive ABPP.
In assay [6] the target is T2, ABHD6. The assay can be described thus: biochemical. The settings on record: in vitro competitive ABPP.

Structures are written as SMILES.

As a reminder, the inhibition is how much of the control response was suppressed. One may read the IC50 as the midpoint of a concentration-inhibition curve.

As to `O=C(OC(C(F)(F)F)C(F)(F)F)N1CC2CN(Cc3ccc(Cl)cc3N3CCN4CCC[C@@H]4C3)CC2C1` (stereo partly drawn) [Example 35, 1,1,1,3,3,3-Hexafluoropropan-2-yl 5-(4-chloro-2-((R)-hexahydropyrrolo[1,2-a]pyrazin-2(1H)-yl)benzyl)-hexahydropyrrolo[3,4-c]pyrrole-2(1H)-carboxylate], the inhibition at 1 µM at FAAH [1] is below 25%; at ABHD6 [2], below 25%; at MAGL [4] it was above 75%. Besides, the values for the 50% inhibitory concentration (IC50) at MAGL [3], at FAAH [5] and on ABHD6 [6] were 100 to 1000 nM, above 10000 nM and 1000 to 10000 nM, respectively.

For the compound `O=C(OC(C(F)(F)F)C(F)(F)F)N1CC2CN(Cc3ccc(N4CCCC4)cc3C(F)F)CC2C1` (stereo not drawn) [Example 202, 1,1,1,3,3,3-hexafluoropropan-2-yl 5-(2-(difluoromethyl)-4-(pyrrolidin-1-yl)benzyl)hexahydropyrrolo[3,4-c]pyrrole-2(1H)-carboxylate], the inhibition at 1 µM on FAAH [1] is 25 to 75%; on ABHD6 [2] it was below 25%; on MAGL [4] it was above 75%. Besides, the IC50 on MAGL [3] lay within 100 to 1000 nM; at FAAH [5] it was 1000 to 10000 nM; at ABHD6 [6] it was 1000 to 10000 nM.

For the compound `O=C(OC(C(F)(F)F)C(F)(F)F)N1CC2CN(Cc3ccc(Cl)cc3N3Cc4cccnc4C3)CC2C1` (stereo not drawn) [Example 32, 1,1,1,3,3,3-Hexafluoropropan-2-yl 5-[(4-chloro-2-[5H,6H,7H-pyrrolo[3,4-b]pyridin-6-yl]phenyl)methyl]-octahydropyrrolo[3,4-c]pyrrole-2-carboxylate], the inhibition at 1 µM was 25 to 75% on FAAH [1], 25 to 75% at ABHD6 [2] and above 75% on MAGL [4]. The IC50 on MAGL [3] was below 100 nM; on FAAH [5], 1000 to 10000 nM; on ABHD6 [6], 1000 to 10000 nM.

For the compound `Cc1c(CN2CC3CN(C(=O)OC(C(F)(F)F)C(F)(F)F)CC3C2)cccc1N1CCC(F)(F)CC1` (stereo not drawn) [Example 153, 1,1,1,3,3,3-hexafluoropropan-2-yl 5-[[3-(4,4-difluoropiperidin-1-yl)-2-methylphenyl]methyl]-octahydropyrrolo[3,4-c]pyrrole-2-carboxylate], the inhibition at 1 µM on FAAH [1] is 25 to 75%; on ABHD6 [2], below 25%; at MAGL [4] it was above 75%. Also, the IC50 is below 100 nM at MAGL [3], 1000 to 10000 nM on FAAH [5] and above 10000 nM on ABHD6 [6].

As to `O=C(OC(C(F)(F)F)C(F)(F)F)N1CC2CN(Cc3ccccc3-c3ccccc3)CC2C1` (stereo not drawn) [Example 12, 1,1,1,3,3,3-Hexafluoropropan-2-yl 5-[(2-phenylphenyl)methyl]-octahydropyrrolo[3,4-c]pyrrole-2-carboxylate], the inhibition at 1 µM was 25 to 75% at FAAH [1], below 25% at ABHD6 [2] and above 75% on MAGL [4]. In addition, the IC50 on MAGL [3] is below 100 nM; at FAAH [5], 1000 to 10000 nM; on ABHD6 [6], above 10000 nM.

With `O=C(OC(C(F)(F)F)C(F)(F)F)N1CC2CN(Cc3ccc(N4CCOCC4)cc3C(F)(F)F)CC2C1` (stereo not drawn) [Example 10, 1,1,1,3,3,3-Hexafluoropropan-2-yl 5-[[4-(morpholin-4-yl)-2-(trifluoromethyl)phenyl]methyl]-octahydropyrrolo[3,4-c]pyrrole-2-carboxylate], the inhibition at 1 µM at FAAH [1] was 25 to 75%; on ABHD6 [2] it was below 25%; at MAGL [4] it was above 75%. Moreover, the 50% inhibitory concentration (IC50) was below 100 nM at MAGL [3], 100 to 1000 nM at FAAH [5] and 1000 to 10000 nM at ABHD6 [6].

As to `O=C(ON1C(=O)CCC1=O)N1CC2CN(Cc3ccc(N4CCOCC4)cc3C(F)(F)F)CC2C1` (stereo not drawn) [Example 85, 2,5-Dioxopyrrolidin-1-yl 5-[[4-(morpholin-4-yl)-2-(trifluoromethyl)phenyl]methyl]-octahydropyrrolo[3,4-c]pyrrole-2-carboxylate], the inhibition at 1 µM is 25 to 75% on FAAH [1], below 25% at ABHD6 [2] and above 75% on MAGL [4]. The values for the IC50 at MAGL [3], on FAAH [5] and on ABHD6 [6] were 100 to 1000 nM, 100 to 1000 nM and 1000 to 10000 nM, respectively.

In the case of `CC(C)n1cc(CN2CC3CN(C(=O)OC(C(F)(F)F)C(F)(F)F)CC3C2)c(-c2ccccc2)n1` (stereo not drawn) [Example 53, 1,1,1,3,3,3-Hexafluoropropan-2-yl 5-[[3-phenyl-1-(propan-2-yl)-1H-pyrazol-4-yl]methyl]-octahydropyrrolo[3,4-c]pyrrole-2-carboxylate], the results for the inhibition at 1 µM at FAAH [1], at ABHD6 [2] and at MAGL [4] were below 25%, 25 to 75% and above 75%, respectively. Further, the 50% inhibitory concentration (IC50) on MAGL [3] was below 100 nM; on FAAH [5] it was 1000 to 10000 nM; at ABHD6 [6] it was 1000 to 10000 nM.

With `CC1COCCN1c1ccc(CN2CC3CN(C(=O)OC(C(F)(F)F)C(F)(F)F)CC3C2)c(Cl)c1` (stereo not drawn) [Example 27, 1,1,1,3,3,3-Hexafluoropropan-2-yl 5-[[2-chloro-4-(3-methylmorpholin-4-yl)phenyl]methyl]-octahydropyrrolo[3,4-c]pyrrole-2-carboxylate], the inhibition at 1 µM is 25 to 75% at FAAH [1], below 25% at ABHD6 [2] and above 75% on MAGL [4]. Also, the concentration for half-maximal inhibition (IC50) on MAGL [3] was below 100 nM; at FAAH [5], 1000 to 10000 nM; at ABHD6 [6] it was 1000 to 10000 nM.

Consider `Cc1cccc(CN2CC3CN(C(=O)OC(C(F)(F)F)C(F)(F)F)CC3C2)c1N1CCN(C)CC1` (stereo not drawn) [Example 147, 1,1,1,3,3,3-hexafluoropropan-2-yl 5-[[3-methyl-2-(4-methylpiperazin-1-yl)phenyl]methyl]-octahydropyrrolo[3,4-c]pyrrole-2-carboxylate], for which the inhibition at 1 µM at FAAH [1] is below 25%; at ABHD6 [2] it was below 25%; at MAGL [4] it was above 75%. The concentration for half-maximal inhibition (IC50) is 100 to 1000 nM at MAGL [3], above 10000 nM on FAAH [5] and above 10000 nM at ABHD6 [6].

For `O=C(OC(C(F)(F)F)C(F)(F)F)N1CC2CN(Cc3cc(CN4CCCC4)cc(OC(F)(F)F)c3)CC2C1` (stereo not drawn) [Example 185, 1,1,1,3,3,3-hexafluoropropan-2-yl 5-(3-(pyrrolidin-1-ylmethyl)-5-(trifluoromethoxy)benzyl)hexahydropyrrolo[3,4-c]pyrrole-2(1H)-carboxylate], the inhibition at 1 µM at FAAH [1] is below 25%; at ABHD6 [2], below 25%; on MAGL [4] it was above 75%. The half-inhibitory concentration (IC50) on MAGL [3] was 100 to 1000 nM; at FAAH [5], above 10000 nM; on ABHD6 [6], 1000 to 10000 nM.

Consider `C#CCNC(=O)c1nn(CC)cc1CN1CC2CN(C(=O)OC(C(F)(F)F)C(F)(F)F)CC2C1` (stereo not drawn) [Example 178, 1,1,1,3,3,3-hexafluoropropan-2-yl 5-((1-ethyl-3-(prop-2-yn-1-ylcarbamoyl)-1H-pyrazol-4-yl)methyl)hexahydropyrrolo[3,4-c]pyrrole-2(1H)-carboxylate], for which the values for the inhibition at 1 µM at FAAH [1], at ABHD6 [2] and at MAGL [4] were below 25%, below 25% and above 75%, respectively. Further, the IC50 was 100 to 1000 nM at MAGL [3], above 10000 nM at FAAH [5] and 1000 to 10000 nM at ABHD6 [6].

In the case of `O=C(OC(C(F)(F)F)C(F)(F)F)N1CC2CN(Cc3cccc(-c4ccccc4)c3)CC2C1` (stereo not drawn) [Example 13, 1,1,1,3,3,3-Hexafluoropropan-2-yl 5-[(3-phenylphenyl)methyl]-octahydropyrrolo[3,4-c]pyrrole-2-carboxylate], the inhibition at 1 µM at FAAH [1] is 25 to 75%; at ABHD6 [2], below 25%; at MAGL [4], above 75%. Also, the IC50 at MAGL [3] is below 100 nM; on FAAH [5], 100 to 1000 nM; at ABHD6 [6] it was 1000 to 10000 nM.

The values above are taken from patent US9828379B2 (priority 2013, dated 2017).
